pIC50: −log10 of the molar value.
Molecular target: T1, purified human HDAC6 (Homo sapiens, UniProt Q9UBN7)
T1 construct: purchased BPS Bioscience 5006
T1 sequence (Q9UBN7 1-1215): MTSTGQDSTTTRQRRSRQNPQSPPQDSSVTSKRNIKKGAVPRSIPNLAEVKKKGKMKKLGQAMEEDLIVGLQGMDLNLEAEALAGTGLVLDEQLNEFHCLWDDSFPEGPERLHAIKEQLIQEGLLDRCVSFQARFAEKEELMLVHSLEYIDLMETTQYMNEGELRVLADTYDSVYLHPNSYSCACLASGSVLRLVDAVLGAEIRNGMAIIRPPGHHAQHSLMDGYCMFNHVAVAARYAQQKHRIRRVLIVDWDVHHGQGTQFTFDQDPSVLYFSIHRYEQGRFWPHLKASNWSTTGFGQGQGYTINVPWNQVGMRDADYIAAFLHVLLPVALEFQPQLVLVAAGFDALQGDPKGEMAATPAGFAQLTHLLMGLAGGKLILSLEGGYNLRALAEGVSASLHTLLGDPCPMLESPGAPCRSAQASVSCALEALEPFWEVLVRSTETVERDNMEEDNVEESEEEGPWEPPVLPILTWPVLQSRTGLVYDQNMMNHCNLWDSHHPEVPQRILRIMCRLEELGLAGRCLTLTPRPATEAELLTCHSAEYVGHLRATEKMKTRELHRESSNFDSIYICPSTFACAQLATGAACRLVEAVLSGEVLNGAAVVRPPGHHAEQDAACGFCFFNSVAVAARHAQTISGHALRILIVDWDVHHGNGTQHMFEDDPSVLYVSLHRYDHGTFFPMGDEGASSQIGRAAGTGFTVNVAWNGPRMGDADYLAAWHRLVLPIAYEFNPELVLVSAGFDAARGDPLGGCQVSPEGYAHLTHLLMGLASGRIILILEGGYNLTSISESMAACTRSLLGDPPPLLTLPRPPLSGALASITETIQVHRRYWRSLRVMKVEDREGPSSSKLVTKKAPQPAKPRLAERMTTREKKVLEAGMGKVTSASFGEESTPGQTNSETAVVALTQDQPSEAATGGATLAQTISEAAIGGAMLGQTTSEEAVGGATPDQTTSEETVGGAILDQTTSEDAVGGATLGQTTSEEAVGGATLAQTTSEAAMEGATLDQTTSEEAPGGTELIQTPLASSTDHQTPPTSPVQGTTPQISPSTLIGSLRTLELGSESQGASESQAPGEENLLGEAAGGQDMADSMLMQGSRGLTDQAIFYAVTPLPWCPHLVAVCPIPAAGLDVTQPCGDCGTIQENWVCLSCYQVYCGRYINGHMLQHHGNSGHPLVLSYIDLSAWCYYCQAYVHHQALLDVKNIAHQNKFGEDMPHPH
Experiment: HDAC6 Enzyme Assay
Format: biochemical
Conditions: for IC50: bin: greater than 500 nM and less than 1 μM (lower bound in nM, upper bound in μM)
Method in brief: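 Deacetylated product quantified after trypsin digestion as released AMC (340/460 nm), following a 1 h, 30 °C reaction of human HDAC6 with Ac-RGK(Ac)-AMC peptide, quenched by trichostatin A. IC50 derived from DMSO-normalized curves.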

[1] = purified human HDAC6, substrate Ac-Arg-Gly-Lys(Ac)-AMC, 1 hour at 30° C., reported as bins

SMILES	pIC50 [1]	also measured
CC(C)C(NC(=O)C(c1ccccc1)c1ccccc1)c1ccc(C(=O)NO)cc1 (centres unmarked) [Compound I-204, 4-{1-[(diphenylacetyl)amino]-2-methylpropyl}-N-hydroxybenzamide]	–	IC50: 500 to 1000 nM
CC(C)C(NC(=O)C1CCCCC1)c1ccc(C(=O)NO)cc1 (centres unmarked) [Compound I-344, 4-{1-[(cyclohexylcarbonyl)amino]-2-methylpropyl}-N-hydroxybenzamide]	6.30 to 7.00	–
CC(NC(=O)c1csc2ccccc12)c1ccc(C(=O)NO)cc1 (centres unmarked) [Compound I-244, N-(1-{4-[(hydroxyamino)carbonyl]phenyl}ethyl)-1-benzothiophene-3-carboxamide]	–	pIC50 (bin: greater than 1 μM): < 6.00
Cn1c(C(=O)NC(c2ccc(C(=O)NO)cc2)C(C)(C)C)cc2oc(-c3ccc(C(F)(F)F)cc3)cc21 (centres unmarked) [Compound I-248, N-(1-{4-[(hydroxyamino)carbonyl]phenyl}-2,2-dimethylpropyl)-4-methyl-2-[4-(trifluoromethyl)phenyl]-4H-furo[3,2-b]pyrrole-5-carboxamide]	–	pIC50 (bin: greater than 1 μM): < 6.00
Cc1c(C(=O)N[C@H](C)c2ccc(C(=O)NO)cc2)sc2ccccc12 [Compound I-12, N-((1R)-1-{4-[(hydroxyamino)carbonyl]phenyl}ethyl)-3-methyl-1-benzothiophene-2-carboxamide]	> 7.00	–
C[C@@H](NC(=O)c1cc2oc(-c3ccccc3)cc2n1C)c1ccc(C(=O)NO)cc1 [Compound I-5, N-((1R)-1-{4-[(hydroxyamino)carbonyl]phenyl}ethyl)-4-methyl-2-phenyl-4H-furo[3,2-b]pyrrole-5-carboxamide]	> 7.00	–
Cc1cc(C(=O)NC(c2ccc(C(=O)NO)cc2)C(C)C)c(C)o1 (centres unmarked) [Compound I-252, N-(1-{4-[(hydroxyamino)carbonyl]phenyl}-2-methylpropyl)-2,5-dimethyl-3-furamide]	6.30 to 7.00	–
CC(C)C(NC(=O)c1cc(C(F)(F)F)cc(C(F)(F)F)c1)c1ccc(C(=O)NO)cc1 (centres unmarked) [Compound I-173, N-(1-{4-[(hydroxyamino)carbonyl]phenyl}-2-methylpropyl)-3,5-bis(trifluoromethyl)benzamide]	6.30 to 7.00	–
CC(=O)Nc1cc(NC(C)=O)cc(C(=O)NC(c2ccc(C(=O)NO)cc2)C(C)C)c1 (centres unmarked) [Compound I-282, 3,5-bis(acetylamino)-N-(1-{4-[(hydroxyamino)carbonyl]phenyl}-2-methylpropyl)benzamide]	> 7.00	–
CC(C)[C@H](NC(=O)c1cc2ccccc2s1)c1ccc(C(=O)NO)cc1 [Compound I-67, N-((1S)-1-{4-[(hydroxyamino)carbonyl]phenyl}-2-methylpropyl)-1-benzothiophene-2-carboxamide]	6.30 to 7.00	–
C[C@@H](NC(=O)c1cc2ccccc2s1)c1ccc(C(=O)NO)cc1 [Compound I-184, N-((1R)-1-{4-[(hydroxyamino)carbonyl]phenyl}ethyl)-1-benzothiophene-2-carboxamide]	> 7.00	–
CC(C)C(NC(=O)c1ccnc2ccccc12)c1ccc(C(=O)NO)cc1 (centres unmarked) [Compound I-246, N-(1-{4-[(hydroxyamino)carbonyl]phenyl}-2-methylpropyl)quinoline-4-carboxamide]	–	IC50: 500 to 1000 nM
CC(NC(=O)C(C)(C)c1ccc(Cl)cc1)c1ccc(C(=O)NO)cc1 (centres unmarked) [Compound I-378, 4-(1-{[2-(4-chlorophenyl)-2-methylpropanoyl]amino}ethyl)-N-hydroxybenzamide]	> 7.00	–
CC(C)C(NC(=O)c1cnc2ccccc2n1)c1ccc(C(=O)NO)cc1 (centres unmarked) [Compound I-190, N-(1-{4-[(hydroxyamino)carbonyl]phenyl}-2-methylpropyl)quinoxaline-2-carboxamide]	> 7.00	–
CC(NC(=O)Nc1cccc2ccccc12)c1ccc(C(=O)NO)cc1 (centres unmarked) [Compound I-6, N-hydroxy-4-(1-{[(1-naphthylamino)carbonyl]amino}ethyl)benzamide]	> 7.00	–
CC(NC(=O)Nc1ccc(F)c(F)c1)c1ccc(C(=O)NO)cc1 (centres unmarked) [Compound I-275, 4-[1-({[(3,4-difluorophenyl)amino]carbonyl}amino)ethyl]-N-hydroxybenzamide]	> 7.00	–

SMILES	pIC50 [1]	also measured
C[C@@H](NS(=O)(=O)c1ccc(C(F)(F)F)cc1)c1cccc(C(=O)NO)c1 [Compound I-403, N-hydroxy-3-[(1R)-1-({[4-(trifluoromethyl)phenyl]sulfonyl}amino)ethyl]benzamide]	–	pIC50 (bin: greater than 1 μM): < 6.00
CC(NC(=O)c1sccc1-n1cccc1)c1ccc(C(=O)NO)cc1 (centres unmarked) [Compound I-228, N-(1-{4-[(hydroxyamino)carbonyl]phenyl}ethyl)-3-(1H-pyrrol-1-yl)thiophene-2-carboxamide]	> 7.00	–
CC(NC(=O)Nc1cc(Cl)ccc1Cl)c1ccc(C(=O)NO)cc1 (centres unmarked) [Compound I-89, 4-[1-({[(2,5-dichlorophenyl)amino]carbonyl}amino)ethyl]-N-hydroxybenzamide]	> 7.00	–
O=C(NO)c1ccc([C@@H](NC(=O)c2cc3ccccc3s2)c2ccccc2)cc1 [Compound I-124, N-[(S)-{4-[(hydroxyamino)carbonyl]phenyl}(phenyl)methyl]-1-benzothiophene-2-carboxamide]	> 7.00	–
Cc1ccc(NC(=O)NC(C)c2ccc(C(=O)NO)cc2)cc1F (centres unmarked) [Compound I-120, 4-[1-({[(3-fluoro-4-methylphenyl)amino]carbonyl}amino)ethyl]-N-hydroxybenzamide]	> 7.00	–
CC(NC(=O)c1cc2oc(-c3ccccc3)cc2n1C)c1cccc(C(=O)NO)c1 (centres unmarked) [Compound I-180, N-(1-{3-[(hydroxyamino)carbonyl]phenyl}ethyl)-4-methyl-2-phenyl-4H-furo[3,2-b]pyrrole-5-carboxamide]	–	pIC50 (bin: greater than 1 μM): < 6.00
CC(C)C(NC(=O)Cc1csc2ccc(Cl)cc12)c1ccc(C(=O)NO)cc1 (centres unmarked) [Compound I-206, 4-(1-{[(5-chloro-1-benzothien-3-yl)acetyl]amino}-2-methylpropyl)-N-hydroxybenzamide]	6.30 to 7.00	–
CC(NC(=O)c1cc(-c2ccccc2)n[nH]1)c1ccc(C(=O)NO)cc1 (centres unmarked) [Compound I-109, N-(1-{4-[(hydroxyamino)carbonyl]phenyl}ethyl)-3-phenyl-1H-pyrazole-5-carboxamide]	> 7.00	–
CC(NC(=O)c1ccc2ccccc2c1)c1ccc(C(=O)NO)cc1 (centres unmarked) [Compound I-327, N-(1-{4-[(hydroxyamino)carbonyl]phenyl}ethyl)-2-naphthamide]	> 7.00	–
CC(C)C(NC(=O)c1csc(-c2ccccc2)n1)c1ccc(C(=O)NO)cc1 (centres unmarked) [Compound I-172, N-(1-{4-[(hydroxyamino)carbonyl]phenyl}-2-methylpropyl)-2-phenyl-1,3-thiazole-4-carboxamide]	> 7.00	–
CC(NC(=O)c1cscn1)c1cccc(C(=O)NO)c1 (centres unmarked) [Compound I-179, N-(1-{3-[(hydroxyamino)carbonyl]phenyl}ethyl)-1,3-thiazole-4-carboxamide]	–	IC50: 500 to 1000 nM
Cn1ccc2cc(C(=O)NC(c3ccc(C(=O)NO)cc3)C(C)(C)C)ccc21 (centres unmarked) [Compound I-145, N-(1-{4-[(hydroxyamino)carbonyl]phenyl}-2,2-dimethylpropyl)-1-methyl-1H-indole-5-carboxamide]	> 7.00	–
O=C(NO)c1ccc([C@H](NC(=O)c2cc3ccccc3s2)C2CC2)cc1 [Compound I-229, N-((R)-cyclopropyl{4-[(hydroxyamino)carbonyl]phenyl}methyl)-1-benzothiophene-2-carboxamide]	> 7.00	–
CC(C)[C@@H](Nc1nc(C(F)(F)F)cs1)c1ccc(C(=O)NO)cc1 [Compound I-529, N-hydroxy-4-((1R)-2-methyl-1-{[4-(trifluoromethyl)-1,3-thiazol-2-yl]amino}propyl)benzamide]	> 7.00	–
Cc1ccc2[nH]c(C(=O)NC(C)c3cccc(C(=O)NO)c3)cc2c1 (centres unmarked) [Compound I-342, N-(1-{3-[(hydroxyamino)carbonyl]phenyl}ethyl)-5-methyl-1H-indole-2-carboxamide]	6.30 to 7.00	–
CC(NC(=O)C1=Cc2ccccc2OC1)c1ccc(C(=O)NO)cc1 (centres unmarked) [Compound I-224, N-(1-{4-[(hydroxyamino)carbonyl]phenyl}ethyl)-2H-chromene-3-carboxamide]	> 7.00	–

Reference: patent publication US9382197B2, “Substituted hydroxamic acids and uses thereof” (Millennium Pharmaceuticals, Inc., priority 2010, dated 2016)
